In US10981932B2, “Macrocyclic indole derivatives” (Bayer Aktiengesellschaft, priority 2016, dated 2021):
Where “and” joins values, the source holds several entries; their conditions need not be identical. Equal values may be shown once. Read-outs that look alike come from different tables or passages of the source.

What was measured:
SUDHL5 [1] = assay: Induction of caspase-3/7 activity (Caspase-Glo 3/7), SUDHL5; assay type: cell-based; conditions: caspase-3/7 induction, SUDHL5 cells, 3 h treatment, median
Method in brief: (§1)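 Caspase-Glo 3/7 luminescence measured after 3 h compound exposure at 37 °C in SUDHL10 and SUDHL5 cells. EC50 values come from background-corrected signals, with curve bottom set to 1 and plateau set to maximal induction by the reference compound.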

OPM2 = assay: Anti-proliferative effect (CellTiter-Glo, 72 h), OPM2; assay type: cell-based; conditions: OPM2 cells, median, read-out: IC50 antiproliferation assay OPM2 [M] (median)
Method in brief: (§2)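 CellTiter-Glo luminescence readout of viability, taken on a time-zero plate at day 0 and on treated plates after 72 h incubation at 37 °C in a humidified incubator. Reagent incubation 10 min before reading.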

SUDHL10 [2] = assay: Anti-proliferative effect (CellTiter-Glo, 72 h), SUDHL10; assay type: cell-based; conditions: SUDHL10 cells, antiproliferation, 72 h incubation, median, read-out: Antiproli SUDHL10 [M] (median)
Method in brief: as §2

MCL-1 = MCL-1 (Homo sapiens, UniProt Q07820); assay: Protein-protein interaction assay MCL-1/Noxa BH3 peptide (MCL-1 assay), TR-FRET; assay type: binding; conditions: MBP-MCL-1 / Noxa BH3-derived peptide, median
Method in brief: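 MBP-MCL-1 (1 nM final) was preincubated 10 min at 22 °C with compounds (11 concentrations, 0.1 nM–20 μM, duplicates) in Tris pH 7 buffer with NaCl, KF, Tween-20, DTT and BGG. After 1 h at 22 °C in the dark plus overnight at 4 °C, anti-MBP Eu-cryptate/streptavidin-XL665 TR-FRET was read; IC50 came from a 4-parameter fit.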

SUDHL10 [3] = assay: Induction of caspase-3/7 activity (Caspase-Glo 3/7), SUDHL10; assay type: cell-based; conditions: caspase-3/7 induction, SUDHL10 cells, 3 h treatment, median
Method in brief: as §1

SUDHL5 [4] = assay: Induction of cytotoxicity (CellTiter-Glo, 5 h), SUDHL5
SUDHL10 [5] = assay: Induction of cytotoxicity (CellTiter-Glo, 5 h), SUDHL10
SUDHL5 [6] = assay: Anti-proliferative effect (CellTiter-Glo, 72 h), SUDHL5; assay type: cell-based; conditions: SUDHL5 cells, antiproliferation, 72 h incubation, median, read-out: Antiproli SUDHL5 [M] (median)
Method in brief: as §2

A2780 = assay: Anti-proliferative effect (CellTiter-Glo, 72 h), A2780; assay type: cell-based; conditions: A2780 cells, median, read-out: IC50 antiproliferation assay A2780 [M] (median)
Method in brief: as §2

[7] = Homo sapiens, SU-DHL-5, 5 h, read-out: Cytotox SUDHL5 [M] (median), SUDHL5 cells, cytotoxicity induction, CellTiter-Glo, 5 h incubation, median
[8] = Homo sapiens, SU-DHL10, 5 h, read-out: Cytotox SUDHL10 [M] (median), SUDHL10 cells, cytotoxicity induction, CellTiter-Glo, 5 h incubation, median
[9] = read-out: Cytotox SUDHL10 [M] (median), SUDHL10 cells, cytotoxicity induction, CellTiter-Glo, 5 h incubation, median
[10] = read-out: Cytotox SUDHL5 [M] (median), SUDHL5 cells, cytotoxicity induction, CellTiter-Glo, 5 h incubation, median

MCL-1, sequence (Q07820 whole entry): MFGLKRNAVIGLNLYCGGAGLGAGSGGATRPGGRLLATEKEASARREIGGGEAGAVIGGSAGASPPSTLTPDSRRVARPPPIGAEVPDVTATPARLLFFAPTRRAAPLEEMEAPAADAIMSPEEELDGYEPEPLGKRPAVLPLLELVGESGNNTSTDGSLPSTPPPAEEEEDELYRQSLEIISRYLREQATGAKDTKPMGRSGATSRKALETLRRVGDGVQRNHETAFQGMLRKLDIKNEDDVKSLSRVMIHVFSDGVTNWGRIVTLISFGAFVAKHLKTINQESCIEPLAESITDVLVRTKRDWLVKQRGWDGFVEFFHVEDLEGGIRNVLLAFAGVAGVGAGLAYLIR

Row | Structure (SMILES) | EC50 (SUDHL5 [1]; Homo sapiens, SU-DHL-5, 3 h) [µM] | IC50 (OPM2; Homo sapiens, OPM-2, 72 h) [M] | IC50 (SUDHL10 [2]; Homo sapiens, SU-DHL10, 72 h) [M] | IC50 (MCL-1) [µM] | EC50 (SUDHL10 [3]; Homo sapiens, SU-DHL10, 3 h) [µM] | IC50 (SUDHL5 [4]; [7]) [M] | IC50 (SUDHL10 [5]; [8]) [M] | IC50 (SUDHL5 [6]; Homo sapiens, SU-DHL-5, 72 h) [M] | EC50 (SUDHL5 [1]) | IC50 (OPM2) [M] | IC50 (SUDHL10 [2]) [M] | EC50 (SUDHL10 [3]) [µM] | IC50 (A2780) [M] | IC50 (SUDHL10 [5]; [9]) | IC50 (SUDHL5 [6]) [M] | IC50 (SUDHL5 [4]; [10]) [M]
1 | Cc1nn(C)c2c1-c1cccc3c(CCCOc4cccc5ccccc45)c(C(=O)O)n(c13)CC=CCN2Cc1ccccc1 (racemic) [Example 001, (rac)-(E/Z)-8-benzyl-9,11-dimethyl-1-[3-(1-naphthyloxy)propyl]-4,7,8,9-tetrahydropyrazolo[4′,3′:4,5][1,6]diazecino[3,2,1-hi]indole-2-carboxylic Acid] | > 33 | > 3.3e-05 | 9.57e-06 | 1.01 | 29.1 | 2.61e-05 | > 3.3e-05 | > 3.3e-05 | – | – | – | – | – | – | – | –
2 | Cc1nn(C)c2c1-c1cccc3c(CCCOc4cccc5ccccc45)c(C(=O)O)n(c13)CCCN(C)C2 (racemic) [Example 1-30, (rac)-7,9,11-trimethyl-1-[3-(naphthalen-1-yloxy)propyl]-4,5,6,7,8,9-hexahydropyrazolo[3′,4′:7,8][1,5]diazecino[9,10,1-hi]indole-2-carboxylic Acid] | 15.6 | 2.28e-05 | 1.36e-05 | 0.00652 | 30.1 | > 3.3e-05 | > 3.3e-05 | 1.04e-05 | – | – | – | – | – | – | – | –
3 | Cn1nc(COc2ccccc2)c2c1COCC=CCn1c(C(=O)O)c(CCCOc3cccc4ccccc34)c3cccc-2c31 (racemic) [Example 1-76, (rac)-(E/Z)-1-methyl-7-[3-(naphthalen-1-yloxy)propyl]-3-(phenoxymethyl)-1,10,13,15-tetrahydropyrazolo[4′,3′:9,10][1,6]oxazacycloundecino[8,7,6-hi]indole-8-carboxylic Acid] | > 33 | > 3.3e-05 | 1.13e-05 | – | > 33 | > 3.3e-05 | > 3.3e-05 | 2.1e-05 | – | – | – | – | – | – | – | –
4 | CN1CCCn2c(C(=O)O)c(CCCOc3cccc4ccccc34)c3cccc(c32)-c2c(COc3ccccc3)nn(C)c2C1 (racemic) [Example 1-81, (rac)-7,9-dimethyl-1-[3-(naphthalen-1-yloxy)propyl]-1-(phenoxymethyl)-4,5,6,7,8,9-hexahydropyrazolo[3′,4′:7,8][1,5]diazecino[9,10,1-hi]indole-2-carboxylic Acid] | > 33 | > 3.3e-05 | 2.78e-05 | 0.0994 | > 33 | > 3.3e-05 | > 3.3e-05 | > 3.3e-05 | – | – | – | – | – | – | – | –
5 | Cc1cc(OCCCc2c(C(=O)O)n3c4c(cccc24)-c2c(COc4ccccc4)nn(C)c2CN(C)CCC3)cc(C)c1Cl (racemic) [Example 1-84, (rac)-1-[3-(4-chloro-3,5-dimethylphenoxy)propyl]-7,9-dimethyl-11-(phenoxymethyl)-4,5,6,7,8,9-hexahydropyrazolo[3′,4′:7,8][1,5]diazecino[9,10,1-hi]indole-2-carboxylic Acid] | > 33 | > 3.3e-05 | 8.37e-06 | 0.11 | > 33 | > 3.3e-05 | > 3.3e-05 | 1.18e-05 | – | – | – | – | – | – | – | –
6 | Cc1nn(C)c2c1-c1cccc3c(CCCOc4cccc5ccccc45)c(C(=O)O)n(c13)CCCN(c1ccccc1)C2 (racemic) [Example 1-97, (rac)-9,11-Dimethyl-1-[3-(1-naphthyloxy)propyl]-7-phenyl-4,5,6,7,8,9-hexahydropyrazolo[3′4′:78][1,5]diazecino[9,10,1-hi]indole-2-carboxylic Acid] | > 30 | 1.43e-05 | 7.07e-06 | 0.175 | > 30 | > 3e-05 | > 3e-05 | 1.18e-05 | – | – | – | – | – | – | – | –
7 | CC(C)OCc1nn(C)c2c1-c1cccc3c(CCCOc4cccc5ccccc45)c(C(=O)O)n(c13)CCCCN(C)C2 (single isomer, unassigned) [Example 1-75, 1,14-dimethyl-7-[3-(naphthalen-1-yloxy)propyl]-3-[(propan-2-yloxy)methyl]-10,11,12,13,14,15-hexahydro-1H-pyrazolo[3′,4′:8,9][1,6]diazacycloundecino[10,11,1-hi]indole-8-carboxylic Acid] | – | – | – | 0.00593 | – | – | – | – | 30.5 µM and > 33 µM | 9.37e-06 | 1.12e-05 | > 33 | 1.39e-05 | 1.9e-05 M and > 3.3e-05 M | 1.56e-05 | –
8 | Cn1nc(COc2ccccc2)c2c1COCC=CCn1c(C(=O)O)c(CCCOc3cccc4ccccc34)c3cccc-2c31 (single isomer, unassigned) [Example 1-77, (E/Z)-1-methyl-7-[3-(naphthalen-1-yloxy)propyl]-3-(phenoxymethyl)-1,10,13,15-tetrahydropyrazolo[4′,3′:9,10][1,6]oxazacycloundecino[8,7,6-hi]indole-8-carboxylic Acid] | > 33 | > 3.3e-05 | 1.52e-05 | 0.188 | > 33 | > 3.3e-05 | > 3.3e-05 | 2.96e-05 | – | – | – | – | – | – | – | –
9 | Cn1nc(COc2ccccc2)c2c1COCC=CCn1c(C(=O)O)c(CCCOc3cccc4ccccc34)c3cccc-2c31 (single isomer, unassigned) [Example 1-78, (E/Z)-1-methyl-7-[3-(naphthalen-1-yloxy)propyl]-3-(phenoxymethyl)-1,10,13,15-tetrahydropyrazolo[4′,3′:9,10][1,6]oxazacycloundecino[8,7,6-hi]indole-8-carboxylic Acid] | – | – | – | 0.905 | – | – | – | – | > 33 µM | 3.06e-05 | 1.08e-05 | > 33 | – | > 3.3e-05 M | 1.79e-05 | > 3.3e-05
10 | CN1CCCn2c(C(=O)O)c(CCCOc3cccc4ccccc34)c3cccc(c32)-c2c(COc3ccccc3)nn(C)c2C1 (single isomer, unassigned) [Example 1-82, 7,9-dimethyl-1-[3-(naphthalen-1-yloxy)propyl]-11-(phenoxymethyl)-4,5,6,7,8,9-hexahydropyrazolo[3′,4′:7,8][1,5]diazecino[9,10,1-hi]indole-2-carboxylic Acid] | > 33 | > 3.3e-05 | 1.42e-05 | 0.113 | > 33 | > 3.3e-05 | > 3.3e-05 | 2.77e-05 | – | – | – | – | – | – | – | –
11 | CN1CCCn2c(C(=O)O)c(CCCOc3cccc4ccccc34)c3cccc(c32)-c2c(COc3ccccc3)nn(C)c2C1 (single isomer, unassigned) [Example 1-83, 7,9-dimethyl-1-[3-(naphthalen-1-yloxy)propyl]-11-(phenoxymethyl)-4,5,6,7,8,9-hexahydropyrazolo[3′,4′:7,8][1,5]diazecino[9,10,1-hi]indole-2-carboxylic Acid] | – | – | – | 0.24 | – | – | – | – | > 33 µM | > 3.3e-05 | 1.12e-05 | > 33 | – | > 3.3e-05 M | 2.06e-05 | > 3.3e-05
